According to publication PMC8657793, “Synthesis, In Vitro and In Silico Anticancer Activity of New 4-Methylbenzamide Derivatives Containing 2,6-Substituted Purines as Potential Protein Kinases Inhibitors” (International Journal of Molecular Sciences, 2021):
Where “and” joins values, the source holds several entries; their conditions need not be identical. Equal entries are not always repeated.

Key:
[1] = target: T1, HER2 (Homo sapiens, UniProt P04626); assay: Kinase Selectivity Profiling System TK-1 / ADP-Glo, HER2; assay type: biochemical
T1 construct: purchased Promega
Procedure: (§1) At the end, 10 μL of kinase detection reagent was added into the well and incubated for 30 min to produce a luminescence signal.

[2] = target: T2, KDR (VEGFR-2) (Homo sapiens, UniProt P35968); assay: Kinase Selectivity Profiling System TK-1 / ADP-Glo, KDR; assay type: biochemical
T2 construct: purchased Promega
Procedure: as §1

[3] = target: T3, IGF1R (Homo sapiens, UniProt P08069); assay: Kinase Selectivity Profiling System TK-1 / ADP-Glo, IGF1R; assay type: biochemical
T3 construct: purchased Promega
Procedure: as §1

[4] = target: T4, HER4 (Homo sapiens, UniProt Q15303); assay: Kinase Selectivity Profiling System TK-1 / ADP-Glo, HER4; assay type: biochemical
T4 construct: purchased Promega
Procedure: as §1

[5] = target: T5, InsR (Homo sapiens, UniProt P06213); assay: Kinase Selectivity Profiling System TK-1 / ADP-Glo, InsR; assay type: biochemical
T5 construct: purchased Promega
Procedure: as §1

[6] = system: HL-60 (promyelocytic leukemia); assay: MTT anti-proliferative assay, HL-60; assay type: cell-based; details: Homo sapiens, 48 h
Procedure: (§2) For the in vitro assays, a stock solution (1% DMSO in the appropriate buffer with the tested compound diluted under sonication) was prepared from which several dilutions were made with the appropriate buffer.
(§3) Human cell lines were obtained from the Institute of Cytology, Russian Academy of Sciences. […] Plates were incubated under standard conditions for 48 h.

[7] = target: T6, EGFR (Homo sapiens, UniProt P00533); assay: Kinase Selectivity Profiling System TK-1 / ADP-Glo, EGFR; assay type: biochemical
T6 construct: purchased Promega
Procedure: as §1

[8] = system: HepG2 (human liver cancer); assay: MTT anti-proliferative assay, HepG2; assay type: cell-based; details: 48 h
Procedure: (§4) To determine the selectivity of the synthesized compounds 7–16 toward various cancer cells and normal human cells, the anti-proliferative activity against K562 (chronic myelogenous leukemia), HL-60 (promyelocytic leukemia), MCF-7 (breast adenocarcinoma), HeLa (cervix carcinoma), HepG2 (human liver cancer), A549 (lung carcinoma), OKP-GS (renal cell carcinoma), and normal cells RPMI 1788 (B lymphocyte, the human cell line) was investigated.
as §2, with “Each in vitro experiment was performed at least in triplicate and the standard deviation of absorbance was less than 10% of the mean. For” for “For”
(§5) Human cell lines were obtained from the Institute of Cytology, Russian Academy of Sciences. The cell lines studied were maintained in RPMI 1640 medium (AppliChem, Darmstadt, Germany) supplemented with 20% (HL-60, RPMI 1788) fetal calf serum (HyClone, Cramlington, UK), in DMEM (A 549) and Eagle’s MEM (AppliChem) (MCF7, HeLa) with 10% fetal calf serum (HyClone). Cells were cultivated at 37 °C in a humidified atmosphere of 5% CO2. Cellular sensitivities to synthesized compounds and standards were measured with the MTT assay. Cells were plated in triplicate in 96-well plates (10^5 cells/well for suspended cell cultures and 5 × 10^3 cells/well for monolayer cultures); on the same day (suspended cell cultures) or on the following day (monolayer cultures), compounds were added at the appropriate dilutions. Anti-proliferative activity was studied at concentrations 0.1–50.0 µM. The reference drugs were imatinib, sorafenib and nilotinib. Plates were incubated under standard conditions for 48 h. Thereafter, 10 μL MTT (Sigma) in phosphate-buffered saline (5 mg/mL) was added. The plates were incubated for an additional 4 h and 150 μL dimethylsulphoxide (DMSO) was added to dissolve the formazan crystals. The optical density was read on a HALO MPR-95 Microplate Reader (Dynamica Scientific Ltd., Melbourne, Victoria, Australia) at 570 nm. The antiproliferative effects were taken as degrees of inhibition of tumor cells (%). The average of three parallel measurements was calculated for each concentration of test compound. The degree of cell growth suppression was plotted as a function of the logarithm of the concentration. The half maximal inhibitory concentration (IC50) was determined graphically for active compounds.

[9] = system: K562 (chronic myelogenous leukemia); assay: MTT anti-proliferative assay, K562; assay type: cell-based; details: Homo sapiens, 48 h
Procedure: as §2, §3

[10] = target: T7, PDGFRβ (Homo sapiens, UniProt P09619); assay: Kinase Selectivity Profiling System TK-1 / ADP-Glo, PDGFRβ; assay type: biochemical
T7 construct: purchased Promega
Procedure: as §1

[11] = target: T8, Bcr–Abl1 kinase (Homo sapiens, UniProt P00519); assay: Abl1 Kinase Enzyme System / ADP-Glo kinase assay; assay type: biochemical; details: ATP 50 μM; for inhibition at 0.5 µM: 0.5 µM compound; for inhibition at 10 µM: 10 µM compound
T8 construct: purchased Promega
Procedure: as §1

[12] = system: A549 (lung carcinoma); assay: MTT anti-proliferative assay, A549; assay type: cell-based; details: Homo sapiens, 48 h
Procedure: as §4
as §2, with “Each in vitro experiment was performed at least in triplicate and the standard deviation of absorbance was less than 10% of the mean. For” for “For”
as §5

[13] = system: HeLa (cervix carcinoma); assay: MTT anti-proliferative assay, HeLa; assay type: cell-based; details: Homo sapiens, 48 h
Procedure: as §4
as §2, with “Each in vitro experiment was performed at least in triplicate and the standard deviation of absorbance was less than 10% of the mean. For” for “For”
as §5

[14] = system: OKP-GS (renal cell carcinoma); assay: MTT anti-proliferative assay, OKP-GS; assay type: cell-based; details: Homo sapiens, 48 h
Procedure: as §4
as §2, with “Each in vitro experiment was performed at least in triplicate and the standard deviation of absorbance was less than 10% of the mean. For” for “For”
as §5

[15] = system: OKP-GS cells; assay: Cell cycle distribution, propidium iodide staining, flow cytometry; assay type: cell-based, human; details: 72 h
Procedure: To assess changes in the distribution of cells by phases of the cell cycle, we used the method of staining fixed samples with propidium iodide (Calbiochem, USA). Pre-fixation of cells was carried out with 70% ethanol for […]. To exclude the binding of propidium iodide to RNA, the fixed samples were treated with RNAse A at a final concentration of 50 μg/mL (R4875, Sigma, St. Louis, MI, USA) for 15 min at 37 °C [34, 35].
Tumor cells were seeded on a 6-well plate at a density of 200.000 per well for HL-60 and 100.000 per well for OKP-GS. Test compounds 7 and 10 were added at concentrations of 5, 10, and 20 μM for 72 h. Then, the cells were washed from the culture medium by centrifugation at 1000 rpm for 5 min, washed again with PBS, then fixed with ice-cold ethanol during constant shaking and incubated at −20 °C for 24 h. After that, we washed it from alcohol by centrifugation, washed it again with PBS and added a solution containing 100 μg/mL RNase A and 10 μg/mL propidium iodide (PI), incubated for 40 min in the dark and measure it on a Cytomics FC500 Beckman Coulter flow cytometer (FL4 channel for PI). Received data were analyzed with the help of Kaluza 2.0 Software (Beckman Coulter, Brea, CA, USA).

T1 sequence (P04626 23-1255): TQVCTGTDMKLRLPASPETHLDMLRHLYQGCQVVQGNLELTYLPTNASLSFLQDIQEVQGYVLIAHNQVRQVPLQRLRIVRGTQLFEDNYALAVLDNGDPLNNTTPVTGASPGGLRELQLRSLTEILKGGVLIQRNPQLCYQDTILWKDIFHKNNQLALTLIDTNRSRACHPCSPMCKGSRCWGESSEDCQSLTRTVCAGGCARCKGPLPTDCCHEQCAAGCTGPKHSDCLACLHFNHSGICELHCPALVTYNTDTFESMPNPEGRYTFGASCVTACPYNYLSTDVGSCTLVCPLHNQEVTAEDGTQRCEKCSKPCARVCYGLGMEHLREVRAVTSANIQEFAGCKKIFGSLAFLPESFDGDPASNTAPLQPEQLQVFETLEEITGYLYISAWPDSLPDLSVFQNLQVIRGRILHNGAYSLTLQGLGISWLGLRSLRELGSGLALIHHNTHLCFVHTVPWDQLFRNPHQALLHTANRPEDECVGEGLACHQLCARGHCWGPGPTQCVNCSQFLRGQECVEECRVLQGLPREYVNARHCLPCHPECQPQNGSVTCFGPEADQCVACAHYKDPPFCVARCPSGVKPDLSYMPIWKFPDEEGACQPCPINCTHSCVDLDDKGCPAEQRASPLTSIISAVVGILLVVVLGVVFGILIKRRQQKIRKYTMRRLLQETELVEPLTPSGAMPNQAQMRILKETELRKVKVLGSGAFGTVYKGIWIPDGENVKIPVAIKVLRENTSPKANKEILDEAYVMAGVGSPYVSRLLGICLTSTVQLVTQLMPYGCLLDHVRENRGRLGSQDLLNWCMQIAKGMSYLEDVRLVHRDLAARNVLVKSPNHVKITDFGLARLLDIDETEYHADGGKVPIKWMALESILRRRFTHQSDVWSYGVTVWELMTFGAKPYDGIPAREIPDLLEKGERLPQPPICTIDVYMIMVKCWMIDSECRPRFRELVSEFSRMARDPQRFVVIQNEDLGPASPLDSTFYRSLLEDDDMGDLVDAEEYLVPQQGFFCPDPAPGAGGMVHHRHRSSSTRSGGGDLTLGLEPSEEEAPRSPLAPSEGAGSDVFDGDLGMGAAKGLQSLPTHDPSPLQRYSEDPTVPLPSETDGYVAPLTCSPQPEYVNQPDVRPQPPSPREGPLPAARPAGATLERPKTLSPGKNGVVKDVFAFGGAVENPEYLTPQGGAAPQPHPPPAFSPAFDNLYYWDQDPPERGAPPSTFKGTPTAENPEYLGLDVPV
T7 sequence (P09619 33-1106): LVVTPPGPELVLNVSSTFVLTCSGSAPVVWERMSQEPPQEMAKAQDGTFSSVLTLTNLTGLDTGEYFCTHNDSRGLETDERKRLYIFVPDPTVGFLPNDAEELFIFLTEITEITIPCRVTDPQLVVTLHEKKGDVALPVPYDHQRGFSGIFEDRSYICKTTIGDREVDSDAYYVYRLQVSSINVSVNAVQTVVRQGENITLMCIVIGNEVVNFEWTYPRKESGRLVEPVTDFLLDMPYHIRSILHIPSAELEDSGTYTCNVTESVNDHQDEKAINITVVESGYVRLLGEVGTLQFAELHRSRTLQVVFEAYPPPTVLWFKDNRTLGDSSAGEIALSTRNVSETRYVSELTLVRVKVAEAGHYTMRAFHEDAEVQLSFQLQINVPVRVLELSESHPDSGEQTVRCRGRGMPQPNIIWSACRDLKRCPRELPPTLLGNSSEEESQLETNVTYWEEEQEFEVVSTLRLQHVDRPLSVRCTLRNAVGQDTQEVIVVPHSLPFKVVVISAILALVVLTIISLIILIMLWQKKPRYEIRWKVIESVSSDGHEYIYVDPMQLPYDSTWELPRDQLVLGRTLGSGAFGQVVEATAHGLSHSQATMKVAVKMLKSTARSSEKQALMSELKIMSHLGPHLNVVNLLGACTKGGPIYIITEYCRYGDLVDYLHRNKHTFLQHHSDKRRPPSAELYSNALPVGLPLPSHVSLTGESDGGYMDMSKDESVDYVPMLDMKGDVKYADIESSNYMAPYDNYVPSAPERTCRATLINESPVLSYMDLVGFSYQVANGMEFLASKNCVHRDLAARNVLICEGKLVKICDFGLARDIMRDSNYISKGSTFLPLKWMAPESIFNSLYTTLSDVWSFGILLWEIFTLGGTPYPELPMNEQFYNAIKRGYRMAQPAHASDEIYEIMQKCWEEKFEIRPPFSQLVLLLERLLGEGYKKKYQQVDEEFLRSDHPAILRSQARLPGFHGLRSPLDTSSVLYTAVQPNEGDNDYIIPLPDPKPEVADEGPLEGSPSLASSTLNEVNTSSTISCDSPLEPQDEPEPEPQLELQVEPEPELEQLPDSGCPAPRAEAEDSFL
T3 sequence (P08069 31-1367): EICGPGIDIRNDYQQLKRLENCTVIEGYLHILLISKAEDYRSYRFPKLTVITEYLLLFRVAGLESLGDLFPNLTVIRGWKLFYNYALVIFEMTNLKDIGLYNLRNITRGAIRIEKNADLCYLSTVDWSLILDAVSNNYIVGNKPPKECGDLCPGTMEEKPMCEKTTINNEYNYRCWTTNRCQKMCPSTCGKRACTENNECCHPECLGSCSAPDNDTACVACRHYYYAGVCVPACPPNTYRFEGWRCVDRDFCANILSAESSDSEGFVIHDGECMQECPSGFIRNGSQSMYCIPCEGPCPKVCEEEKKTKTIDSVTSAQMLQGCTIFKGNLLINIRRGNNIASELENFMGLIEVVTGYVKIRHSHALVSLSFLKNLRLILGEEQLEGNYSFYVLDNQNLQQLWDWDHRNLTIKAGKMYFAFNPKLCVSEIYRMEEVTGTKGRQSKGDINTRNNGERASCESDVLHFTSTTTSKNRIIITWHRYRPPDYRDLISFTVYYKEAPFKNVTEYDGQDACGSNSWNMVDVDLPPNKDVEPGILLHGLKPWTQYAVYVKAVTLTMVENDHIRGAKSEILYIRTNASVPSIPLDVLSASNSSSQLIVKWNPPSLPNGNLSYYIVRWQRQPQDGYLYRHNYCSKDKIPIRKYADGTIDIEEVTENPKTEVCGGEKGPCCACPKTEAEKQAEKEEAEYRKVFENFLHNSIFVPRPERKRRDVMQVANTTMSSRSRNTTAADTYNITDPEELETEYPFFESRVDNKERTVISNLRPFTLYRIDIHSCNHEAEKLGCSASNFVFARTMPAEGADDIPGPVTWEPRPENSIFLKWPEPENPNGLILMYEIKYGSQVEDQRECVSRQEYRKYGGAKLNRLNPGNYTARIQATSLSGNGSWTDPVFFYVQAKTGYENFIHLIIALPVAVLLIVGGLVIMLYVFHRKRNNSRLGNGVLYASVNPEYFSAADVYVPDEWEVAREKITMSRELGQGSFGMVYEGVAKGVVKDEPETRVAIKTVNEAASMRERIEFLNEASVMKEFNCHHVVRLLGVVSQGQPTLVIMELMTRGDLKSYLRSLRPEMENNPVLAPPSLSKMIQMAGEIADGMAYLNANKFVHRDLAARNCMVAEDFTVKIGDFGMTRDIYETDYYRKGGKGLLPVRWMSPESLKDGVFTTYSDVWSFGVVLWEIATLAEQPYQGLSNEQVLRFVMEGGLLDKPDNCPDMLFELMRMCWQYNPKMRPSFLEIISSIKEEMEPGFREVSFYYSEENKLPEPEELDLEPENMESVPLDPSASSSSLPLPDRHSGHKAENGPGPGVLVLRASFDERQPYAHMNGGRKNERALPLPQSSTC
T6 sequence (P00533 25-1210): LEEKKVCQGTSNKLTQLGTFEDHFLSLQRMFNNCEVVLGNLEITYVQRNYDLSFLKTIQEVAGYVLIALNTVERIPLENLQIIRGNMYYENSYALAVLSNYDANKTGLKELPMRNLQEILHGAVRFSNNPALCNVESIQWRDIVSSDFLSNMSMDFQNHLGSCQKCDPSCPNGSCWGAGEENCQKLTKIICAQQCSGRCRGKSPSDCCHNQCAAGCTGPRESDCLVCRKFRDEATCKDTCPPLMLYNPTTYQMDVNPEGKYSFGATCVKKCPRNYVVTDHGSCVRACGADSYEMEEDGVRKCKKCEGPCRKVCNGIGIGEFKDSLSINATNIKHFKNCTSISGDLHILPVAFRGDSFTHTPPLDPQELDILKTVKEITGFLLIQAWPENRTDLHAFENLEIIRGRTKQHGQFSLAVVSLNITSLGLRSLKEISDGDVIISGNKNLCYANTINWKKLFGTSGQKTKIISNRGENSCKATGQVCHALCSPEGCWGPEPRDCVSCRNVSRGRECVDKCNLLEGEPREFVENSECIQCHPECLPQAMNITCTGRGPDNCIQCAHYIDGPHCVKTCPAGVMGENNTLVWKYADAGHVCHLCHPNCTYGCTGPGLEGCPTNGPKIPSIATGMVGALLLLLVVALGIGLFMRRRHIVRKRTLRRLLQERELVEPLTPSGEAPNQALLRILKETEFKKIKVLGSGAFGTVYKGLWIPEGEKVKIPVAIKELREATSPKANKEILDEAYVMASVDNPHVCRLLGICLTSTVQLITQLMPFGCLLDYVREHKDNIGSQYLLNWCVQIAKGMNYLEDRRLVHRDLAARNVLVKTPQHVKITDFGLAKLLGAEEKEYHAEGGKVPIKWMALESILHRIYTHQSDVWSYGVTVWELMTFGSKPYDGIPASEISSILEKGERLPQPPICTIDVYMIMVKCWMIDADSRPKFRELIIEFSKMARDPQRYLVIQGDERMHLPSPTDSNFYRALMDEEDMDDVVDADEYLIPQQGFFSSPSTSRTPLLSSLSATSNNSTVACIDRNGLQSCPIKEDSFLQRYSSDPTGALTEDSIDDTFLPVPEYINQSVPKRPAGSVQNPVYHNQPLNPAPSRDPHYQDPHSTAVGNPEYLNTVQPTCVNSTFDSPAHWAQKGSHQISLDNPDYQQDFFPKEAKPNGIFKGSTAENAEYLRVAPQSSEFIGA

Structure (SMILES) | inhibition at 1 µM [1] [%] | melting point [°C] | inhibition at 1 µM [2] [%] | inhibition at 1 µM [3] [%] | inhibition at 1 µM [4] [%] | inhibition at 1 µM [5] [%] | IC50 [6] [µM] | inhibition at 1 µM [7] [%] | IC50 [8] [µM] | IC50 [9] [µM] | inhibition at 1 µM [10] [%] | inhibition at 0.5 µM [11] [%] | inhibition at 10 µM [11] [%] | IC50 [12] [µM] | IC50 [13] [µM] | IC50 [14] [µM] | Cells in G1 phase ([15]; 5 μM) [%] | Cells in G2/M phase ([15]; 5 μM) | Cells in G2/M phase ([15]; 20 μM) | Cells in S phase ([15]; 20 μM) [%] | also measured
Nc1nc(Cl)nc2c1ncn2Cc1ccc(C(=O)Nc2cccc(C(F)(F)F)c2)cc1 [Compound 15, 4-((6-Amino-2-chloro-9H-purin-9-yl)methyl)-N-(3-(trifluoromethyl)phenyl)benzamide] | 0 | 272 to 274 | 13 | 0 | 0 | 0 | 7.18 | 0 | 88.3 ± 2.54 | 30.6 ± 0.94 | 33 | 17 | 28 |  |  |  |  |  |  |  | 
COc1nc(Cl)nc2c1ncn2Cc1ccc(C(=O)Nc2cccc(C(F)(F)F)c2)cc1 [Compound 13, 4-((2-Chloro-6-methoxy-9H-purin-9-yl)methyl)-N-(3-(trifluoromethyl)phenyl)benzamide] | 0 | 212 to 214 | 30 | 0 | 0 | 0 | 26.1 ± 1.23 | 29 | 9.16 ± 0.78 | 29.7 ± 1.87 | 17 | 24 | 21 | 13 ± 0.67 | 15.4 ± 1.92 | 15.5 ± 2.27 |  |  |  |  | 
Cc1cn(-c2cc(NC(=O)c3ccc(Cn4cnc5c(Cl)nc(Cl)nc54)cc3)cc(C(F)(F)F)c2)cn1 [Compound 10, 4-((2,6-Dichloro-9H-purin-9-yl)methyl)-N-(3-(4-methyl-1H-imidazol-1-yl)-5-(trifluoromethyl)-phenyl)benzamide] | 11 |  | 16 | 0 | 0 | 0 | 1.52 ± 0.66 | 9 | 12.7 ± 0.7 | 2.53 ± 0.77 | 39 | 36 | 43 | 18 ± 0.73 | 6.05 ± 1.03 | 24.8 ± 3.25 | 56.9 | 24.3% | 25.3% | 19.3 | Cells in S phase ([15]; 5 μM): 16.8%; Cells in G1 phase ([15]; 10 μM): 53.3%; Cells in G2/M phase ([15]; 10 μM): 24.2%; Cells in S phase ([15]; 10 μM): 21.5%
O=C(Nc1cccc(C(F)(F)F)c1)c1ccc(Cn2cnc3c(Cl)nc(Cl)nc32)cc1 [Compound 7, 4-((2,6-Dichloro-9H-purin-9-yl)methyl)-N-(3-(trifluoromethyl)phenyl)benzamide] | 22 to 26 |  | 11 | 0 | 0 | 6 | 1.42 ± 0.54 | 6 | 11.3 ± 1.44 | 2.27 ± 0.81 | 36 to 45 | 24 | 16 | 26.9 ± 0.64 | 6.93 ± 1.18 | 4.56 ± 1.73 | 60.9 | 23.53% and 23.5% | 29.94% and 29.9% | 17.4 | % Inhibition at 1 µM, HER2 [1]: 22%; % Inhibition at 1 µM, PDGFRβ [10]: 30%; Cells in S phase ([15]; 5 μM): 14.2%; Cells in G1 phase ([15]; 10 μM): 55.5%; Cells in G2/M phase ([15]; 10 μM): 26.02% and 26.0%; Cells in S phase ([15]; 10 μM): 17.7%; Cells in G1 phase ([15]; 20 μM): 51.2%
CNC(=O)c1cc(Oc2ccc(NC(=O)Nc3ccc(Cl)c(C(F)(F)F)c3)cc2)ccn1 [Sorafenib, sorafenib, reference compound] |  |  |  |  |  |  |  |  | 8.4 ± 2.8 | 2.9 ± 0.4 |  |  |  | 6.01 ± 1.27 | 6.82 ± 2.64 | 13.6 ± 1.71 |  |  | 19.7% | 17.3 | Cells in G1 phase ([15]; 20 μM): 61.9%
COc1nc(Cl)nc2c1ncn2Cc1ccc(C(=O)Nc2cc(-n3cnc(C)c3)cc(C(F)(F)F)c2)cc1 [Compound 14, 4-((2-Chloro-6-methoxy-9H-purin-9-yl)methyl)-N-(3-(4-methyl-1H-imidazol-1-yl)-5-(trifluoromethyl)phenyl)benzamide] | 8 | 160 to 162 | 27 | 0 | 0 | 17 | 48.6 ± 3.02 | 9 | 28.5 ± 1.07 | 27.5 ± 1.19 | 20 | 18 | 17 | 20.1 ± 0.81 | 33.7 ± 7.49 | 10.6 ± 2.88 |  |  |  |  | 
